Consider 55 compounds from PubChem BioAssay AID1117296 (The Scripps Research Institute Molecular Screening Center, 2014).

The source made the active and inactive calls.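 Rule for the calls: active = IC50 at or below 10 µM; inactive = IC50 above 10 µM.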 A value given as a limit tells only on which side of the number the result lay.

The subject of this assay is HuH7 TTR-promoter Gaussia luciferase reporter, luminescence. The experiment in a line: TTR transcription inhibitors in hepatoma cells, dose response, counter-screen for TTR transcription activator project, cell-based, luminescence, HuH7 hepatoma, IC50 (AID 1117296).
In the case of `CC(Oc1ccccc1)C(=O)N1CCN=C1SCc1ccccc1` (stereo not given), the IC50 was 70.7 µM (inactive).

Take `Cc1ccc(/C=N/NC(=O)c2csc(C)c2)o1`: the IC50 is 116 µM (inactive). The same measure for `COc1ccc([C@@H]2CC=C(C(=O)O)[C@H](c3ccccc3F)N2S(=O)(=O)c2ccccc2C)cc1`: 66.3 µM (inactive); for `Cn1ncc(Cl)c1C(=O)N1CCc2ccccc21`: > 167 µM (inactive); for `O=C/C(=C\Nc1ccccn1)c1nc2ccccc2o1`: > 18.4 µM (inactive). The same measure for `CCCC(=O)NC1=C(N2CC2)C(=O)C(NC(=O)CCC)=C(N2CC2)C1=O`: 23.5 µM (inactive). Take `[O-]/C(=C(\C(=S)Nc1ccc(SC(F)F)cc1)[n+]1ccccc1)c1cc(Cl)ccc1Cl`: the IC50 was > 167 µM (inactive).

Consider `CN(Cc1ccccc1)C(=O)c1[nH]cnc1C(=O)NCC(=O)OC(C)(C)C`, for which the IC50 is > 167 µM (inactive).

For `Cc1cc(C)n(CC(=O)n2c(C)c(C)c3ccccc32)n1`, the IC50 is > 167 µM (inactive). The same measure for `Cc1c(NS(=O)(=O)c2ccc(NC3CCCC3)c([N+](=O)[O-])c2)c(=O)n(-c2ccccc2)n1C`: > 167 µM (inactive); for `c1cc2c(cc1C1=Nn3c(nnc3C3CCCCC3)SC1)OCO2`: 47.1 µM (inactive); for `Cc1ccc(Nc2c3c(nc4ncnn24)CCC3)cc1`: > 167 µM (inactive). The same measure for `Cc1c(Br)c(C(=O)N2CCc3ccccc32)nn1C`: > 167 µM (inactive); for `CC1CN(Cc2ccccc2)c2nc3c(c(=O)n(CC(N)=O)c(=O)n3C)n2C1` (stereo not given): > 167 µM (inactive); for `COc1ccc(C(=O)NC2CCCc3c2cnn3-c2cc(F)cc(F)c2)c(OC)c1OC` (stereo not given): 61.9 µM (inactive). Take `CCOC(=O)Nc1nc(-c2ccccc2)c(C(=O)c2ccc(Cl)cc2)s1`: the IC50 is > 55.2 µM (inactive).

With `CC(=O)c1cc(C(C)=O)c(C)nc1C`, the IC50 was > 167 µM (inactive). The same measure for `O=c1cc(O)c2sc(Nc3ccc(Cl)c(F)c3)nc2[nH]1`: > 167 µM (inactive); for `OCCNc1c2ccccc2nc2ccccc12`: 54.9 µM (inactive). Take `COc1ccc2cc3c(N)nn(C(=O)c4ccccc4[N+](=O)[O-])c3nc2c1`: the IC50 is 34.8 µM (inactive). In the case of `O=[N+]([O-])c1cccc(-c2noc(-c3ccco3)n2)c1`, the IC50 was > 167 µM (inactive). The figure for `COc1ccc(CCNc2c3ccccc3nc3ccccc23)cc1OC` is 54.4 µM (inactive); for `COc1ccc(-c2cc(C)no2)cc1S(=O)(=O)NCc1cccc(C)c1` it is > 167 µM (inactive). Take `Cc1ccc(CNC(=O)Cc2ccc(-c3ccccc3)cc2)cc1`: the IC50 is > 167 µM (inactive).

As for `Cn1cc(Br)c(C(=O)N2CCc3ccccc32)n1`, the IC50 was > 167 µM (inactive). The figure for `COc1ccc2[nH]c3c(Cl)ncnc3c2c1` is > 167 µM (inactive); for `c1ccc(Sc2ncnc3c2oc2ccccc23)nc1` it is 142 µM (inactive). Turning to `CCCNC(=O)c1ccc(N2CCC3(CC2)CC(c2ccccc2)=NO3)c(NC(=O)c2ccco2)c1`, the IC50 was > 167 µM (inactive). The same measure for `C/C(=N\Nc1ncc(Br)cn1)c1cccc([N+](=O)[O-])c1`: > 167 µM (inactive). The figure for `O=C(O)c1ccc(CSc2nnc(Cc3ccccc3)o2)cc1` is 27.3 µM (inactive).

For the compound `N=c1ccn(CC(=O)NC(N)=O)c2ccccc12`, the IC50 was > 167 µM (inactive). The figure for `Cn1c(O)c(/C=C2\N=c3ccccc3=C2CCNC(=S)NC2CC2)c(=O)n(C)c1=O` is 45 µM (inactive).

Turning to `C=CCn1c(=O)c2c(nc3n2CC(C)CN3Cc2ccccc2)n(C)c1=O` (stereo not given), the IC50 was 82.5 µM (inactive).

In the case of `CCOc1ccc(N=C2NC(=O)S/C2=C\c2ccc(O)cc2)cc1`, the IC50 was > 167 µM (inactive).

As for `Cc1cccc(N(C)c2ncnc3onc(-c4ccc(F)cc4)c23)c1C`, the IC50 was > 55.2 µM (inactive). The same measure for `CN(C)CCNc1ccc(CO)c2oc3ccc(O)cc3c(=O)c12`: > 55.2 µM (inactive).

Take `Cc1ccccc1Cn1cc(COC(=O)N(C)Cc2ccccc2)nn1`: the IC50 was 115 µM (inactive). The same measure for `Cc1c(C(=O)N2CCc3ccccc32)cnn1C`: > 167 µM (inactive); for `CC(C)CNC(=O)CSc1nnc2ccccn12`: > 167 µM (inactive). The same measure for `Cc1ccc([C@H]2C[C@@H](O)[C@H](n3cc(-c4ccc(F)cc4)nn3)CN2C(=O)c2cccs2)cc1`: 63 µM (inactive); for `CN(C)CC(CCC(CN(C)C)C(O)(c1ccccc1)c1ccccc1)C(O)(c1ccccc1)c1ccccc1` (stereo not given): 17.2 µM (inactive). For `Cc1cccc(NC(c2ccc(O)cc2)c2ccc3ccc(C)nc3c2O)n1` (stereo not given), the IC50 was 61.8 µM (inactive). The figure for `COc1cccc(-c2csc(NC(=O)C3CC3)n2)c1` is 103 µM (inactive). Take `Cc1nnc(SCc2ccc(Cl)cc2)nc1/C=C/N(C)C`: the IC50 was 81.3 µM (inactive). With `Cn1ncc(Br)c1C(=O)N1CCc2ccccc21`, the IC50 is > 167 µM (inactive).

Consider `Cn1cc(C2CC(c3ccccc3)=NN2C(=O)c2ccccc2)c2ccccc21` (stereo not given), for which the IC50 was > 167 µM (inactive). On to `CCn1ncc(/C=N\NC(=O)c2csc3ccccc23)c1C`, for which the IC50 was > 167 µM (inactive). The same measure for `Cn1nccc1C(=O)N1CCc2ccccc21`: > 167 µM (inactive); for `Cc1ccc(C2CC(c3ccccc3)=NN2C(=S)Nc2ccccc2)o1` (stereo not given): > 167 µM (inactive). The figure for `COc1ccc(-c2noc(-c3cccs3)n2)cc1OC` is > 167 µM (inactive). As for `CCCCn1c(O)c(C(=O)/C=C/c2ccc3c(c2)OCO3)c(=O)[nH]c1=O`, the IC50 was 90.9 µM (inactive). The figure for `Cc1cc(C(=O)N2CCc3ccccc32)n(-c2ccccc2)n1` is 175 µM (inactive).

In the case of `O=C(CCl)c1cc2c3c(c1)CC(=O)N3CCC2`, the IC50 was 19.8 µM (inactive). The same measure for `Cc1nn(C)c(C(=O)N2CCc3ccccc32)c1Br`: > 167 µM (inactive); for `Cc1cnc(NC(=O)CCCc2nc3ccccc3s2)s1`: > 167 µM (inactive).

By IC50 is commonly meant the concentration at which inhibition is half-maximal.
